Molecular target: T1, ΔC2 SHIP (Homo sapiens, UniProt Q92835, DEL725-863)
T1 construct: His6; made in house; host or cells: mammalian expression vector pME18S
T1 sequence (Q92835 with tags, fused parts or gaps DEL725-863): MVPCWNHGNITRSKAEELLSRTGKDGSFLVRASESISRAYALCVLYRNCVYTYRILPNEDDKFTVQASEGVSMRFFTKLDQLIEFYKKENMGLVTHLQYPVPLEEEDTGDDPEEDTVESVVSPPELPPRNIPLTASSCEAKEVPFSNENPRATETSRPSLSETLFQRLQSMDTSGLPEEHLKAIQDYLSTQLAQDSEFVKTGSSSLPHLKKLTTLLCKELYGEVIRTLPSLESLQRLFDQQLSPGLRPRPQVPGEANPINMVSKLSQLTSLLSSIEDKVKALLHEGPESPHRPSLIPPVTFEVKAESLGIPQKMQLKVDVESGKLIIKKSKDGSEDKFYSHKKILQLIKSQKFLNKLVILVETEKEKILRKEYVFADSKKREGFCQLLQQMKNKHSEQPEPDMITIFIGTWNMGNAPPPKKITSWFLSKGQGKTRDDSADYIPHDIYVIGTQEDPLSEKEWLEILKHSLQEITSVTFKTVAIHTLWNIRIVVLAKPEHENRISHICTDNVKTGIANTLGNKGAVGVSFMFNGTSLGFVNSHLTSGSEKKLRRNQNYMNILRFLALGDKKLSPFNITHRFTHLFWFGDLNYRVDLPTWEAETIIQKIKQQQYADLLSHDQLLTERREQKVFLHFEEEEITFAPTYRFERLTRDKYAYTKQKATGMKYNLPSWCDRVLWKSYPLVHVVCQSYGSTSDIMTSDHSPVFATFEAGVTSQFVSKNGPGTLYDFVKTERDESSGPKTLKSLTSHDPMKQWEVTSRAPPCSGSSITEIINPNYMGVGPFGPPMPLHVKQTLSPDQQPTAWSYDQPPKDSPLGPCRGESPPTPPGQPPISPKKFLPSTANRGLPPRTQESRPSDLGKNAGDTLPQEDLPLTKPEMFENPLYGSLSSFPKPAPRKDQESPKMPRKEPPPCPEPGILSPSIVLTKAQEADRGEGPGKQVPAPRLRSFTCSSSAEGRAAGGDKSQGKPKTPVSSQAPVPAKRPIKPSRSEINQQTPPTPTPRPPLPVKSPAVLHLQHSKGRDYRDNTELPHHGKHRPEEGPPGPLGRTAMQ
Assay: Scintillation proximity assay, SHIP lacking its C2 domain
Type: binding
Conditions: SPA beads
Procedure: Compound 100 was radiolabelled with tritium by GE Healthcare (Piscataway, N.J.) to a specific activity of 42 Ci/mmole. Copper chelate (His-Tag) YSi SPA Scintillation Beads (GE ealthcare, Piscataway, N.J.) were diluted in 0.25% BSA/TBS to 1.5 mg/mL and recombinant, His6-tagged protein added at the indicated concentrations: wild-type (1 pM), ΔC2 SHIP enzyme (1 pM) or C2 domain (10 nM). Protein was allowed to bind 1 h at 23° C., and 250 μg of beads were aliquoted per well of a 96-well plate. 5 μCi of [^3H]-Compound 100 was added per well, the plate gently agitated for 30 min and the amount of bead associated radioactivity quantified by counting in a Wallac BetaPlate plate scintillation counter.
Isolated recombinant, His6-tagged C2 domain was expressed and its PI-3,4-P2 binding ability was determined using protein lipid overlay assays. Purified C2 domain was incubated with membrane strips spotted with PI-3,4-P2 and bound protein detected using an anti-His6 antibody. As shown in FIG. 11C the C2 domain bound PI-3,4-P2 and this binding was inhibited by Compound 100, consistent with both Compound 100 and PI-3,4-P2 interacting with the C2 domain at a common binding site.

binding of [3H]-Compound 100 to SHIP lacking its C2 domain: not to SHIP lacking its C2 domain
Structure (SMILES): Cc1cc(O)cc2c1[C@]1(C)CCC3C(C)(C)CCC[C@]3(C)[C@H]1C2 (stereo partly shown) [Compound 100]
